Assays:
[1] = system: tobacco mosaic virus (TMV); assay: Anti-TMV in vitro effect (half-leaf soaking); format: cell-based, tobacco mosaic virus (host Nicotiana tabacum L.cv.Xanthi NN); settings: Tobacco mosaic virus, read-out: Relative inhibition rate (%) In vitro activity; for inhibition at 100 µg/mL: treatment dose 100 μg/mL; for inhibition at 500 µg/mL: treatment dose 500 μg/mL
[2] = system: tobacco mosaic virus (TMV); assay: Anti-TMV in vivo inactivation; design: species or system tobacco mosaic virus (host Nicotiana tabacum L.cv.Xanthi NN); settings: Tobacco mosaic virus, read-out: Relative inhibition rate (%) In vivo inactivation; for inhibition at 100 µg/mL: treatment dose 100 μg/mL; for inhibition at 500 µg/mL: treatment dose 500 μg/mL
[3] = system: tobacco mosaic virus (TMV); assay: Anti-TMV in vivo therapeutic effect; design: species or system tobacco mosaic virus (host Nicotiana tabacum L.cv.Xanthi NN); settings: Tobacco mosaic virus, read-out: Relative inhibition rate (%) In vivo therapy; for inhibition at 100 µg/mL: treatment dose 100 μg/mL; for inhibition at 500 µg/mL: treatment dose 500 μg/mL
[4] = system: tobacco mosaic virus (TMV); assay: Anti-TMV in vivo protective effect; design: species or system tobacco mosaic virus (host Nicotiana tabacum L.cv.Xanthi NN); settings: Tobacco mosaic virus, read-out: Relative inhibition rate (%) In vivo protection; for inhibition at 100 µg/mL: treatment dose 100 μg/mL; for inhibition at 500 µg/mL: treatment dose 500 μg/mL
cucumber fusarium wilt = assay: Fungicidal (bactericidal) activity in vitro, PDA colony diameter; format: cell-based; settings: Fusarium, 96 h; 50 mg/kg
Cercospora arachidicola = assay: as above; format: cell-based; settings: Mycosphaerella arachidis, 96 h; 50 mg/kg
Macrophoma kawatsukai = assay: as above; format: cell-based; settings: 50 mg/kg
Alternaria solani = assay: as above; format: cell-based; settings: Alternaria solani, 96 h; 50 mg/kg
Fusarium graminearumt = assay: microbe, parasite or virus in culture; format: cell-based; settings: Fusarium, 96 h, read-out: Bactericidal activity (%) Fusarium graminearumt
potato late blight = assay: microbe, parasite or virus in culture; format: cell-based; settings: Phytophthora infestans, 96 h, read-out: Bactericidal activity (%) potato late blight
Sclerotinia scleotiorum = assay: Fungicidal (bactericidal) activity in vitro, PDA colony diameter; format: cell-based; settings: Sclerotinia, 96 h; 50 mg/kg
Botrytis cinerea = assay: as above; format: cell-based; settings: Botrytis cinerea, 96 h; 50 mg/kg
Rhizoctonia solani = assay: as above; format: cell-based; settings: Rhizoctonia solani, 96 h; 50 mg/kg
Phytophthora capsici = assay: as above; format: cell-based; settings: Phytophthora capsici, 96 h; 50 mg/kg
Fusarium fujikuroi = assay: as above; format: cell-based; settings: Fusarium fujikuroi, 96 h; 50 mg/kg
Rhizoctonia cereali = assay: as above; format: cell-based; settings: Rhizoctonia, 96 h; 50 mg/kg
Bipolaria maydis = assay: organism not typed; format: cell-based; settings: read-out: Bactericidal activity (%) Bipolaria maydis
[5] = system: Colletotrichum orbiculare; assay: Fungicidal (bactericidal) activity in vitro, PDA colony diameter; format: cell-based; settings: Colletotrichum orbiculare, 96 h; 50 mg/kg
armyworms = format: in vivo; settings: concentration 600 mg/kg
cotton bollworms = assay: whole plant or invertebrate; settings: Helicoverpa armigera, in Gossypium hirsutum, read-out: Cotton bollworm Mortality (%)
Procedure: Experimental method of cotton bollworms: feed and drug mixing method: measure 3 mL of prepared solution and add it to about 27 g of newly prepared feed, thereby obtaining needed concentration through dilution by 10 times.

mosquito larvae = assay: whole plant or invertebrate; settings: Culex pipiens, 24 h, read-out: Mosquito larvae Mortality (%)
Method in brief: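 Early fourth-instar Culex pipiens pallens larvae from an indoor colony, 10 per beaker, exposed to test compound at 5 ppm in water, diluted from a 1000 ppm acetone mother solution. Blank: water containing 0.5 mL test solvent.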

[6] = system: tobacco mosaic virus (TMV); assay: Anti-TMV activity, overall statements on Table 1; format: in vivo, tobacco mosaic virus (host Nicotiana tabacum L.cv.Xanthi NN); settings: 100 μg/mL versus ningnanmycin at 100 μg/mL
corn borers = assay: whole plant or invertebrate; settings: read-out: Corn borer Mortality (%)

Row | Compound | inhibition at 100 µg/mL [1] [%] | inhibition at 500 µg/mL [1] [%] | inhibition at 100 µg/mL [2] [%] | inhibition at 500 µg/mL [2] [%] | inhibition at 100 µg/mL [3] [%] | inhibition at 500 µg/mL [3] [%] | inhibition at 100 µg/mL [4] [%] | inhibition at 500 µg/mL [4] [%] | inhibition of growth at 50 mg/kg (cucumber fusarium wilt) [%] | inhibition of growth at 50 mg/kg (Cercospora arachidicola) [%] | inhibition at 50 mg/kg (Macrophoma kawatsukai) [%] | inhibition of growth at 50 mg/kg (Alternaria solani) [%] | inhibition of growth at 50 mg/kg (Fusarium graminearumt) [%] | inhibition of growth at 50 mg/kg (potato late blight) [%] | inhibition of growth at 50 mg/kg (Sclerotinia scleotiorum) [%] | inhibition of growth at 50 mg/kg (Botrytis cinerea) [%] | inhibition of growth at 50 mg/kg (Rhizoctonia solani) [%] | inhibition of growth at 50 mg/kg (Phytophthora capsici) [%] | inhibition of growth at 50 mg/kg (Fusarium fujikuroi) [%] | inhibition of growth at 50 mg/kg (Rhizoctonia cereali) [%] | also measured
1 | CC1=NCCc2c1[nH]c1ccccc21 [Harmalan] | 30 | 58.6 | 32.7 | 62.3 | 34.8 | 55.1 | 35.6 | 60.3 | 23.1 | 76.9 | 2.4 | 26.3 | 21.4 | 31.8 | 19.6 | 15.2 | 19.7 | 0 | 28.6 | 55.3 | inhibition at 50 mg/kg (Bipolaria maydis): 27.3%; inhibition of growth at 50 mg/kg [5]: 25%; Armyworm Mortality (%) (armyworms): 20%; mortality at 600 mg/kg (cotton bollworms): 10%; mortality at 10 mg/kg (mosquito larvae): 35%; anti-TMV activity compared with ningnanmycin [6]: equivalent to the activity of commercial variety ningnanmycin; mortality at 600 mg/kg (corn borers): 15%
2 | C[C@@H]1N[C@H](C(=O)NN)Cc2c1[nH]c1ccccc21 [Ib-15, (1S, 3S)-1-methyl-2,3,4,9-tetrahydropyridino [3,4-b] indol-3-formylhydrazine] | 21.4 | 50 | 16.5 | 46 | 20.3 | 48.2 | 23.4 | 49.6 | 13.6 | 18.2 | 39.4 | 9.5 | 38.5 | 26.1 | 30.8 | 27.8 | 4.2 | 51.5 | 29.4 | 54.1 | inhibition at 50 mg/kg (Bipolaria maydis): 24%; inhibition of growth at 50 mg/kg [5]: 24%; Armyworm Mortality (%) (armyworms): 20%; mortality at 600 mg/kg (cotton bollworms): 20%; mortality at 10 mg/kg (mosquito larvae): 40%; anti-TMV activity compared with ningnanmycin [6]: equivalent to the activity of commercial variety ningnanmycin; mortality at 600 mg/kg (corn borers): 30%
3 | C[C@@H]1N[C@H](C(=O)NNC(=O)c2cccc3nnsc23)Cc2c1[nH]c1ccccc21 [Id-1, N′-((1S, 3S)-1-methyl-2,3,4,9-tetrahydropyridino [3,4-b]indol-3-tricarboxylate)benzo [d] [1,2, 3] thiadiazole-7-formylhydrazine] | 22.6 | 52.1 | 16.2 | 44.1 | 26.8 | 54.5 | 29.9 | 58.3 | 13.6 | 18.2 | 51.5 | 19 | 61.5 | 17.4 | 26.9 | 44.4 | 1.4 | 27.3 | 47.1 | 43.2 | inhibition at 50 mg/kg (Bipolaria maydis): 36%; inhibition of growth at 50 mg/kg [5]: 32%; Armyworm Mortality (%) (armyworms): 35%; mortality at 600 mg/kg (cotton bollworms): 15%; mortality at 10 mg/kg (mosquito larvae): 75%; anti-TMV activity compared with ningnanmycin [6]: equivalent to the activity of commercial variety ningnanmycin; mortality at 600 mg/kg (corn borers): 35%
